Experimental data as given in patent publication US20210009542A1 (Calico Life Sciences LLC, priority 2018, published 2021).
Read-outs that look alike come from different tables or passages of the source.

Assays:
[1] = target: T1, His tagged PTPN2 (TC45) protein (Homo sapiens, UniProt P17706); experiment: Mobility shift assay (MSA) for potency of PTPN2 inhibitors; type: biochemical; settings: read-out: PTPN2 MSA IC50
T1 construct: made in house
T1 sequence (P17706 with tags, fused parts or gaps isoform P17706-2): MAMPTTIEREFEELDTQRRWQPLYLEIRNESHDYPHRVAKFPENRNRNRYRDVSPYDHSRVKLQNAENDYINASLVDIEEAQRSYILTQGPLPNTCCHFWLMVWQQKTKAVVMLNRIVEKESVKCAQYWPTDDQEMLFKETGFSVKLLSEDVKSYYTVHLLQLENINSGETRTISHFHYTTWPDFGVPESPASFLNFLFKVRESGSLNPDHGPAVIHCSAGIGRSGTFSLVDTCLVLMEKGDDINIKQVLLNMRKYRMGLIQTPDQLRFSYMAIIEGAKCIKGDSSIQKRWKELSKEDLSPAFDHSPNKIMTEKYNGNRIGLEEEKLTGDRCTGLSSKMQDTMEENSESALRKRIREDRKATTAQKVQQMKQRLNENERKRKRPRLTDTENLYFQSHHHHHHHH
Summary of the method: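 His-tagged PTPN2 TC45 (0.5 nM) was preincubated with compound (12-point, 1:3) for 10 min at room temperature in 50 mM HEPES pH 7.5, 1 mM EGTA, 10 mM EDTA, 0.01% Tween 20, 2 mM DTT. OG488-labelled phospho-insulin-receptor peptide ([…]) was then added for 10 min. After quenching, dephosphorylation was measured by microfluidic mobility shift and IC50 derived from % inhibition.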

[2] = test system: B16F10 mouse melanoma cells; experiment: B16F10 IFNγ-induced cellular growth inhibition assay; type: cell-based; settings: Mus musculus, B16-F10, 33 μM compound
Summary of the method: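 B16F10 cells (500/well, DMEM + 10% FBS) dosed in triplicate at 100 μM to 0.001 μM (0.1% DMSO) with or without 0.5 ng/mL final mouse IFNγ. Confluence imaged every 6 h for 5 days; % growth inhibition calculated versus DMSO/with-IFNγ control once DMSO/no-IFNγ wells exceeded 95% confluence.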

[3] = +0.5 ng/mL IFNγ, relative to DMSO control, read-out: % B16F10 growth inhibition (+0.5 ng/mL IFNγ) @ 33 μM
[4] = no IFNγ, read-out: % B16F10 growth inhibition (no IFNγ) @ 33 μM

Structure (SMILES)	IC50 [1] [nM]	inhibition at 33 µM [2, 3] [%]	inhibition at 33 µM [2, 4] [%]
O=C1CN(c2c(O)cc3ccc(OCC4CCNCC4)cc3c2F)S(=O)(=O)N1 [Compound 114, 5-{1-fluoro-3-hydroxy-7-[(piperidin-4-yl)methoxy]naphthalen-2-yl}-1λ^6,2,5-thiadiazolidine-1,1,3-trione]	1 to 10	60 to 90	< 25
COc1ccc2c(F)c(O)c(N3CC(=O)NS3(=O)=O)c(F)c2c1 [Compound 117, 5-(1,4-difluoro-3-hydroxy-7-methoxynaphthalen-2-yl)-1λ^6,2,5-thiadiazolidine-1,1,3-trione]	1 to 10	25 to 59	< 25
CC(C)(C)CCNc1ccc2cc(O)c(N3CC(=O)NS3(=O)=O)c(F)c2c1 [Compound 116, 5-{7-[(3,3-dimethylbutyl)amino]-1-fluoro-3-hydroxynaphthalen-2-yl}-1λ^6,2,5-thiadiazolidine-1,1,3-trione]	1 to 10	> 90	< 25
O=C1CN(c2c(O)cc3ccc(OC4CC4)cc3c2F)S(=O)(=O)N1 [Compound 223, 5-[7-(cyclopropyloxy)-1-fluoro-3-hydroxynaphthalen-2-yl]-1λ^6,2,5-thiadiazolidine-1,1,3-trione]	1 to 10	60 to 90	< 25
N#CC1(CNc2ccc3cc(O)c(N4CC(=O)NS4(=O)=O)c(F)c3c2)CC1 [Compound 181, 1-({[8-fluoro-6-hydroxy-7-(1,1,4-trioxo-1λ^6,2,5-thiadiazolidin-2-yl)naphthalen-2-yl]amino}methyl)cyclopropane-1-carbonitrile]	1 to 10	60 to 90	< 25
CCS(=O)(=O)N1CC=C(c2ccc3cc(O)c(N4CC(=O)NS4(=O)=O)c(F)c3c2)C1 [Compound 295, 5-{7-[1-(ethanesulfonyl)-2,5-dihydro-1H-pyrrol-3-yl]-1-fluoro-3-hydroxynaphthalen-2-yl}-1λ^6,2,5-thiadiazolidine-1,1,3-trione]	< 1	> 90	< 25
CP(C)(=O)N1CC=C(c2ccc3cc(O)c(N4CC(=O)NS4(=O)=O)c(F)c3c2)C1 [Compound 168, 5-{7-[1-(dimethylphosphoryl)-2,5-dihydro-1H-pyrrol-3-yl]-1-fluoro-3-hydroxynaphthalen-2-yl}-1λ^6,2,5-thiadiazolidine-1,1,3-trione]	< 1	> 90	< 25
O=C1CN(c2c(O)cc3ccc(C4CNC4)cc3c2F)S(=O)(=O)N1 [Compound 226, 5-[7-(azetidin-3-yl)-1-fluoro-3-hydroxynaphthalen-2-yl]-1λ^6,2,5-thiadiazolidine-1,1,3-trione]	1 to 10	60 to 90	< 25
COc1ccc2c(Cl)c(O)c(N3CC(=O)NS3(=O)=O)c(F)c2c1 [Compound 238, 5-(4-chloro-1-fluoro-3-hydroxy-7-methoxynaphthalen-2-yl)-1λ^6,2,5-thiadiazolidine-1,1,3-trione]	10 to 100	< 25	< 25
O=C1CN(c2c(O)cc3ccc(-c4cnn(CC5CC5)c4)cc3c2F)S(=O)(=O)N1 [Compound 132, 5-{7-[1-(cyclopropylmethyl)-1H-pyrazol-4-yl]-1-fluoro-3-hydroxynaphthalen-2-yl}-1λ^6,2,5-thiadiazolidine-1,1,3-trione]	< 1	60 to 90	< 25
CCOCCOc1ccc2cc(O)c(N3CC(=O)NS3(=O)=O)c(F)c2c1 [Compound 246, 5-[7-(2-ethoxyethoxy)-1-fluoro-3-hydroxynaphthalen-2-yl]-1λ^6,2,5-thiadiazolidine-1,1,3-trione]	1 to 10	60 to 90	< 25
